Experimental data taken from US8415469B2, “Compounds and methods for kinase modulation, and indications therefor” (Plexxikon Inc., priority 2005, dated 2013).

What was measured:
Format in all cases: biochemical
[1] = molecular target: T1, Fms (Homo sapiens, UniProt P07333); test: AlphaScreen kinase assay, Fms; conditions: read-out: IC50, activity toward kinase Fms
T1 construct: purchased Upstate Biotechnology

[2] = molecular target: T2, B-Raf V600E (Homo sapiens, UniProt P15056, V600E); test: AlphaScreen kinase assay, B-Raf V600E; conditions: read-out: IC50, activity toward kinase B-Raf V600E
T2 construct: P4254. pFastBacBD-CDC37 BRAF D437-K722-X, V600E; His6 with pFastBac HT leader (TEV site) (N); made in house; host or cells: Sf9 (baculovirus; chaperone CDC37 co-expressed)
T2 sequence (P15056 with tags, fused parts or gaps V600E): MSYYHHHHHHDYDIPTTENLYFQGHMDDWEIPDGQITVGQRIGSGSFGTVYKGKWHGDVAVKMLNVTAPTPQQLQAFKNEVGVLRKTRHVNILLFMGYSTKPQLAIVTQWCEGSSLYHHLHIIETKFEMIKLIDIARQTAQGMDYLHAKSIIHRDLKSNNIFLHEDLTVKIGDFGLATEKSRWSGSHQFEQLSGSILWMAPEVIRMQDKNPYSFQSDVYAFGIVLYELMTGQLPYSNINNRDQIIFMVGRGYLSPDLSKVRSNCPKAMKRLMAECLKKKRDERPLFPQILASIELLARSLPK

[3] = molecular target: T3, B-Raf (Homo sapiens, UniProt P15056); test: AlphaScreen kinase assay, B-Raf; conditions: read-out: IC50, activity toward kinase B-Raf
T3 construct: purchased Upstate Biotechnology
T3 sequence (P15056 whole entry): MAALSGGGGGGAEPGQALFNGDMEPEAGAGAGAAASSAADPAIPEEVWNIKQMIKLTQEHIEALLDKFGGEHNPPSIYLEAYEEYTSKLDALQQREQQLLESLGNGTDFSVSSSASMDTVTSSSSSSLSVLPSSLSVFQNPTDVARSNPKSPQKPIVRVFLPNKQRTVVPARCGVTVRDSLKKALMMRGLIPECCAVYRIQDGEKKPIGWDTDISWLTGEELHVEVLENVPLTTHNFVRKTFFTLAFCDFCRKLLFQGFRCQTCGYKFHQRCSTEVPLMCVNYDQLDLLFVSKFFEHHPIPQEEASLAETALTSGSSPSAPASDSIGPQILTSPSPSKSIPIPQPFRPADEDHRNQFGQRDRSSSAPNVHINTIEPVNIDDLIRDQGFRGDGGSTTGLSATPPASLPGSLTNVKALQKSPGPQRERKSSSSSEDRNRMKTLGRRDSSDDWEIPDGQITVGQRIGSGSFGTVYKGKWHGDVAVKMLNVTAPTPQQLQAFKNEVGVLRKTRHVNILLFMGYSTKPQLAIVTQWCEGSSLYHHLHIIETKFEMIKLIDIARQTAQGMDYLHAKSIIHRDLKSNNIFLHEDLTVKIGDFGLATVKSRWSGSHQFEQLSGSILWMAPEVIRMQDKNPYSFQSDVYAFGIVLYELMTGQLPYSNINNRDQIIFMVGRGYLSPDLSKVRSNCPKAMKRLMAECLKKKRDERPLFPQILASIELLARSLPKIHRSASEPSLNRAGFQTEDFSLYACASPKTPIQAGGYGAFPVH

[4] = molecular target: T4, FGFR1 (Homo sapiens, UniProt P11362, C488A/C584S); test: AlphaScreen kinase assay, FGFR1; conditions: read-out: IC50, activity toward kinase FGFR
T4 construct: P1351.pET N6 BI-PTP FGFR A458-E765-X C488A, C584S; made in house; host or cells: E. coli (PTP1B co-expressed)
T4 sequence (P11362 458-765 C488A/C584S): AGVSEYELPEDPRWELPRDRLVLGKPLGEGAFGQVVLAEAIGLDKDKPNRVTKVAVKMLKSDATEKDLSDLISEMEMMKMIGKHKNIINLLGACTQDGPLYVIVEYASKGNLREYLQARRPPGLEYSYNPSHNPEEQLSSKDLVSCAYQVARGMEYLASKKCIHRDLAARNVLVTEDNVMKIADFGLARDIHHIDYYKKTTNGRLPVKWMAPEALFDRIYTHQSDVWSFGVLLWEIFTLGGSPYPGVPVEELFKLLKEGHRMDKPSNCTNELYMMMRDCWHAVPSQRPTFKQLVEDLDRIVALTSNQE

[5] = molecular target: T5, Kit (Homo sapiens, UniProt P10721); test: AlphaScreen kinase assay, Kit; conditions: read-out: IC50, activity toward kinase Kit
T5 construct: P1332.N6 BI PTP KIT M552-K948-X COD; His6 (N); made in house; host or cells: E. coli (PTP1B co-expressed)
T5 sequence (P10721 with tags, fused parts or gaps): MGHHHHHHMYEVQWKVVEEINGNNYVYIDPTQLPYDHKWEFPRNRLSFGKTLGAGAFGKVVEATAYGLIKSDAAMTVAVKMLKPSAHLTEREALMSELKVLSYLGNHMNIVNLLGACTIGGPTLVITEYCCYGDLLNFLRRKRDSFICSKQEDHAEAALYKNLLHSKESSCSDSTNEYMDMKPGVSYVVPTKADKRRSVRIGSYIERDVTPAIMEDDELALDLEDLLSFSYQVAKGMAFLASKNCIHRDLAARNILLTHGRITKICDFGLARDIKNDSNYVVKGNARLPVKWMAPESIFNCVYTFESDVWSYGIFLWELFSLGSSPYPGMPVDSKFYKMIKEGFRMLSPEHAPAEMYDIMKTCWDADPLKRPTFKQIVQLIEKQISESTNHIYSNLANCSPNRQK

T1 sequence (P07333 20-972): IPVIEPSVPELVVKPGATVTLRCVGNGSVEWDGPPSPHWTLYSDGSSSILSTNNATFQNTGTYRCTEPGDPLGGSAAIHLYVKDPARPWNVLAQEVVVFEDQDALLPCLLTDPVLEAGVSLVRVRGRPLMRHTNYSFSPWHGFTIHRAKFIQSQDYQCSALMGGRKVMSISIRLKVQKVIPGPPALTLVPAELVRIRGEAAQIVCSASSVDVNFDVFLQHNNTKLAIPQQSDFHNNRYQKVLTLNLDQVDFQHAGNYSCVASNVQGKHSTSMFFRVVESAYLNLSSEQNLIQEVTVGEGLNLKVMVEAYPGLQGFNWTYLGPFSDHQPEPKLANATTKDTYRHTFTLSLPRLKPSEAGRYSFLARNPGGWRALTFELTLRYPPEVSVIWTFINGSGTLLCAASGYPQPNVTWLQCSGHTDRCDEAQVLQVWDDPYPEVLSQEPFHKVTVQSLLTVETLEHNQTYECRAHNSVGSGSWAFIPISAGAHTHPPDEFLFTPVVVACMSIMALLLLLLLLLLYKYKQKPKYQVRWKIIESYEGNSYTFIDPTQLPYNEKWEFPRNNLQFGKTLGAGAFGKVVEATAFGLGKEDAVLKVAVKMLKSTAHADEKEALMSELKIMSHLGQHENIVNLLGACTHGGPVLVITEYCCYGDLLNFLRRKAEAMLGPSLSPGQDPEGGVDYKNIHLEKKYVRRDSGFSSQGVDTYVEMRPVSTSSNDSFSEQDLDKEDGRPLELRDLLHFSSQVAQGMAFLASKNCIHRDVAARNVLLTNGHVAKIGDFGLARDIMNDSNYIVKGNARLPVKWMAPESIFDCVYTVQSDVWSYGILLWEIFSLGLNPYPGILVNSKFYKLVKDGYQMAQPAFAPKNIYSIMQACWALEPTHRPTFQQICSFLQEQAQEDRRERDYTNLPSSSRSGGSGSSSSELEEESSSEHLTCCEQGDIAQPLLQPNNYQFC

Compound | IC50 [1] | IC50 [2] | IC50 [3] | IC50 [4] | IC50 [5]
O=C(Nc1cccc(F)c1)Nc1cccc(C(=O)c2c[nH]c3ncc(-c4ccc(F)cc4)cc23)c1 [Compound P-1819, 1-(3-Fluoro-phenyl)-3-{3-[5-(4-fluoro-phenyl)-1H-pyrrolo[2,3-b]pyridine-3-carbonyl]-phenyl}-urea] | ≤ 10 µM | ≤ 10 µM | ≤ 10 µM |  | 
O=C(Nc1cccc(Cl)c1)Nc1cccc(C(=O)c2c[nH]c3ncc(Cl)cc23)c1 [Compound P-1736, 1-(3-Chloro-phenyl)-3-[3-(5-chloro-1H-pyrrolo[2,3-b]pyridine-3-carbonyl)-phenyl]-urea] | ≤ 10 µM | ≤ 10 µM | ≤ 10 µM |  | 
O=C(c1cc(NS(=O)(=O)c2cccc(F)c2)ccc1F)c1c[nH]c2ncc(Cl)cc12 [Compound P-1665] | ≤ 10 µM | ≤ 10 µM | ≤ 10 µM |  | 
COCCNC(=O)Nc1cccc(C(=O)c2c[nH]c3ncc(Cl)cc23)c1 [Compound P-1772, 1-[3-(5-Chloro-1H-pyrrolo[2 3-b]pyridine-3-carbonyl)-phenyl]-3-(2-methoxy-ethyl)-urea] | ≤ 10 µM | ≤ 10 µM | ≤ 10 µM |  | 
O=C(Nc1cccc(C(=O)c2c[nH]c3ncc(-c4ccc(F)cc4)cc23)c1)Nc1ccc(F)c(F)c1 [Compound P-1817, 1-(3,4-Difluoro-phenyl)-3-{3-[5-(4-fluoro-phenyl)-1H-pyrrolo[2,3-b]pyridine-3-carbonyl]-phenyl}-urea] | ≤ 10 µM | ≤ 10 µM | ≤ 10 µM |  | 
N#Cc1ccc(S(=O)(=O)Nc2cccc(C(=O)c3c[nH]c4ncccc34)c2)cc1 [Compound P-1701] | ≤ 10 µM | ≤ 10 µM | ≤ 10 µM |  | 
O=C(Nc1ccc(C(F)(F)F)cc1)Nc1cccc(C(=O)c2c[nH]c3ncccc23)c1 [Compound P-1717, 1-[3-(1H-Pyrrolo[2,3-b]pyridine-3-carbonyl)-phenyl]-3-(4-trifluoromethyl-phenyl)-urea] | ≤ 10 µM | ≤ 10 µM | ≤ 10 µM |  | 
CCCCOc1ccc(NC(=O)Nc2cccc(C(=O)c3c[nH]c4ncccc34)c2)cc1 [Compound P-1715, 1-(4-Butoxy-phenyl)-3-[3-(1H -pyrrolo[2,3-b]pyridine-3-carbonyl)-phenyl]-urea] | ≤ 10 µM | ≤ 10 µM | ≤ 10 µM |  | 
COc1cc(NC(=O)Nc2cccc(C(=O)c3c[nH]c4ncc(Cl)cc34)c2)cc(C(F)(F)F)c1 [Compound P-1773, 1-[3-(5-Chloro-1H-pyrrolo[2,3-b]pyridine-3-carbonyl)-phenyl]-3-(3-methoxy-5-trifluoromethyl-phenyl)-urea] | ≤ 10 µM | ≤ 10 µM | ≤ 10 µM |  | 
COC(=O)c1ccc(S(=O)(=O)Nc2ccc(F)c(C(=O)c3c[nH]c4ncc(Cl)cc34)c2F)o1 [Compound P-1907, 5-[3-(5-Chloro-1H-pyrrolo[2,3-b]pyridine-3-carbonyl)-2,4-difluoro-phenylsulfamoyl]-furan-2-carboxylic acid methyl ester] | ≤ 10 µM | ≤ 10 µM | ≤ 10 µM |  | 
O=C(Nc1cccc(C(=O)c2c[nH]c3ncc(Cl)cc23)c1)Nc1cccc(C(F)(F)F)c1 [Compound P-1747, 1-[3-(5-Chloro-1H-pyrrolo[2,3-b]pyridine-3-carbonyl)-phenyl]-3-(3-trifluoromethyl-phenyl)-urea] | ≤ 10 µM | ≤ 10 µM | ≤ 10 µM |  | 
O=C(Nc1cccc(C(=O)c2c[nH]c3ncc(Cl)cc23)c1)Nc1ccc(F)c(F)c1 [Compound P-1735, 1-[3-(5-Chloro-1H-pyrrolo[2,3-b]pyridine-3-carbonyl)-phenyl]-3-(3,4-difluoro-phenyl)-urea] | ≤ 10 µM | ≤ 10 µM | ≤ 10 µM |  | 
O=C(c1c(F)ccc(NS(=O)(=O)c2cc3ccccc3s2)c1F)c1c[nH]c2ncc(Cl)cc12 [Compound P-1799, Benzo[b]thiophene-2-sulfonic acid [3-(5-chloro-1H-pyrrolo[2,3-b]pyridine-3-carbonyl)-2,4-difluoro-phenyl]-amide] | ≤ 10 µM | ≤ 10 µM | ≤ 10 µM |  | 
CN(C)c1ccc(NC(=O)Nc2cccc(C(=O)c3c[nH]c4ncc(Cl)cc34)c2)cc1 [Compound P-1782, 1-[3-(5-Chloro-1H-pyrrolo[2,3-b]pyridine-3-carbonyl)-phenyl]-3-(4-dimethylamino-phenyl)-urea] | ≤ 10 µM | ≤ 10 µM | ≤ 10 µM |  | 
O=C(c1c(F)ccc(NS(=O)(=O)c2ccc(OC(F)F)cc2)c1F)c1c[nH]c2ncc(Cl)cc12 [Compound P-1916, N-[3-(5-Chloro-1H-pyrrolo[2,3-b]pyridine-3-carbonyl)-2,4-difluoro-phenyl]-4-difluoromethoxy-benzenesulfonamide] | ≤ 10 µM | ≤ 10 µM | ≤ 10 µM |  | 
COCCOc1cnc2[nH]cc(C(=O)c3c(F)ccc(NS(=O)(=O)c4ccc(C(F)(F)F)cc4)c3F)c2c1 [Compound P-2005, N-{2,4-Difluoro-3-[5-(2-methoxy-ethoxy)-1H-pyrrolo[2,3-b]pyridine-3-carbonyl]-phenyl}-4-trifluoromethyl-benzenesulfonamide] | ≤ 10 µM | ≤ 10 µM | ≤ 10 µM |  | 
O=C(c1cc(NS(=O)(=O)c2cccc(F)c2)ccc1Cl)c1c[nH]c2ncc(Cl)cc12 [Compound P-1663] | ≤ 10 µM | ≤ 10 µM | ≤ 10 µM |  | 
CCCS(=O)(=O)Nc1cccc(C(=O)c2c[nH]c3ncc(Br)cc23)c1 [Compound P-1116, propane-1-sulfonic acid [3-(5-bromo-1H-pyrrolo[2,3-b]pyridin-3-carbonyl)-phenyl]-amide] |  | ≤ 10 µM | ≤ 10 µM | ≤ 10 µM | 
O=S(=O)(Nc1ccc(F)c(C(O)c2c[nH]c3ncc(Cl)cc23)c1F)c1ccc(C(F)(F)F)cc1 (stereo not shown) [Compound P-1539] |  | ≤ 10 µM | ≤ 10 µM | ≤ 10 µM | 
CCCS(=O)(=O)Nc1ccc(F)c(C(=O)c2c[nH]c3ncc(CCC(=O)O)cc23)c1F [Compound P-1270, 3-3-[2,6-difluoro-3-(propane-1-sulfonylamino)-benzoyl]-1H-pyrrolo[2,3-b]pyridin-5-yl-propionic acid] |  | ≤ 10 µM | ≤ 10 µM | ≤ 10 µM | 
O=C(c1c(F)ccc(NS(=O)(=O)c2ccc(F)cc2)c1F)c1c[nH]c2ncccc12 [Compound P-1865, N-[2,4-Difluoro-3-(1H-pyrrolo[2,3-b]pyridine-3-carbonyl)-phenyl]-4-fluoro-benzenesulfonamide] |  | ≤ 10 µM | ≤ 10 µM |  | ≤ 10 µM
COc1cccc(Cc2c[nH]c3ncc(Br)cc23)c1 [Compound P-0556] |  |  | ≤ 10 µM | ≤ 10 µM | ≤ 10 µM
O=C(c1c(F)ccc(NS(=O)(=O)c2ccsc2)c1F)c1c[nH]c2ncc(Cl)cc12 [Compound P-1268, Thiophene-3-sulfonic acid [3-(5-chloro-1H-pyrrolo[2,3-b]pyridin-3-carbonyl)-2,4-difluoro-phenyl]-amide] |  |  | ≤ 10 µM |  | ≤ 10 µM
O=C(c1c(F)ccc(NS(=O)(=O)c2cc(F)cc(F)c2)c1F)c1c[nH]c2ncc(Cl)cc12 [Compound P-1841, N-[3-(5-chloro-1H-pyrrolo[2,3-b]pyridine-3-carbonyl)-2,4-difluoro-phenyl]-3,5-difluorobenzenesulfonamide] |  | ≤ 10 µM | ≤ 10 µM |  | 
